Where two headings read alike, the source gives them in different places.

Here are results for four molecules from patent US20130267606A1, “USE OF VITAMIN K FOR WEIGHT MAINTENANCE AND WEIGHT CONTROL” (VITAK B.V., priority 2011, published 2013).

The conditions of assay [1]: 62.5 mg/kg body weight per day, rats; cited from earlier work.
Assay [2] is described as follows: placebo controlled 2-year randomized trial of vitamin K1 on body weight and BMI during and after weight reduction intervention (Example 5). It counts as in vivo, human. Particulars: vitamin K1 1 mg/day. As to the method: 120 apparently healthy but overweight subjects (age range: 35-60 years, 52 men, 68 women) were recruited in a placebo controlled 2-year randomized trial to investigate the influence of vitamin K1 (1 mg/day) on body weight and BMI during and after a 6-month intervention aiming significant weight reduction. At the start of the study participants were randomized to receive either placebo or vitamin K for 24 months. All participants received extensive dietary counselling and were motivated to increase their physical exercise during the first 6 months of the study, with personal contact once weekly. After this initial period, counselling was stopped, but vitamin K/placebo treatment was continued for another 18 months, while participants visited our institute every half year. Inclusion criteria were: apparently healthy, BMI between 25 and 35 kg/m^2, Exclusion criteria were: a medical history or use of drugs known to interfere with vitamin K-, calcium- and/or glucose-metabolism. Body height was measured using a wall-mounted stadiometer. Body weight was measured to the nearest 0.1 kg with participants wearing light clothing and no shoes. Body mass index (BMI) was calculated as body weight (kg) divided by the square of height (m^2). Statistical analysis was performed using the statistical package (SPSS vs 17.0 Corp, Chicago, Ill.).

Another assay relates to adipogenesis. Particulars: in vitro; cited from earlier work.
For assay [3] the following is noted: after 3 years of supplementation, cited from earlier work.
The conditions of assay [4]: 1 year of supplementation, healthy postmenopausal women; cited from earlier work.
Assay [5] in a line: vitamin K2 (MK-7) dose-response study, circulating osteocalcin and adiponectin (Example 2). It counts as in vivo, human.
Assay [6] can be described thus: placebo controlled 3-year randomized trial of vitamin K2 (MK-7) on body weight and BMI in postmenopausal women (Example 4). It counts as in vivo, human. How it is done: 250 apparently healthy postmenopausal women (age range: 55-75 years) were recruited in a placebo controlled 3-year randomized trial to investigate the influence of vitamin K2 (MK-7, 180 μg/day) on body weight and BMI. Exclusion criteria were: BMI>30 kg/m^2, a medical history or use of drugs known to interfere with vitamin K-, calcium- and/or glucose-metabolism. Body height was measured using a wall-mounted stadiometer. Body weight was measured to the nearest 0.1 kg with participants wearing light clothing and no shoes. Body mass index (BMI) was calculated as body weight (kg) divided by the square of height (m^2). Statistical analysis was performed using the statistical package (SPSS vs 17.0 Corp, Chicago, Ill.). […] In the unpaired t-test the difference in response to treatment was statistically significant at P<0.005 after 3 years.

Assay [7] is described as follows: placebo controlled randomized 3-year trial of vitamin K2 (MK-4) on BMI and serum markers in postmenopausal women (Example 3). It counts as in vivo, human. Particulars: for serum ucOC / serum cOC: mean±SD.
Setting [8] is: second phase of the study (18 months).

With menaquinone [vitamin K2], the “effect in animal model for auto-immune disease” value in assay [1] is “protective”.

For `CC1=C(C/C=C(\C)CCC[C@H](C)CCC[C@H](C)CCCC(C)C)C(=O)c2ccccc2C1=O` [vitamin K1, phylloquinone], in assay [2] (first 6 months with dietary counselling and exercise), the “decrease of average body weight and BMI versus placebo” value is given as “non-significant better performance”. Further, the “average weight gain versus placebo group” value in assay [2] (following 18 months (second phase), p<0.05) is “significantly lower”. Besides, in assay [2] (setting [8]), the “participants returned to their starting weight” value turned out to be 7 participants. The “participants without significant weight gain” value in assay [2] (setting [8]) is recorded as 28 participants. The adipogenesis result in the assay with adipogenesis is on record as “not”. Also, the “progression of insulin resistance” value in assay [3] (older men) was “reduced”; in assay [3] (women), “not”. Further, the glucose metabolism result in assay [4] was “did not alter”.

For the molecule `CC(C)=CCC/C(C)=C/CC/C(C)=C/CC/C(C)=C/CC/C(C)=C/CC/C(C)=C/CC/C(C)=C/CC1=C(C)C(=O)c2ccccc2C1=O` [MK-7], in assay [5] (MK-7 45-360 μg per day for 12 weeks, effect even at 45 μg/day), the ucOC/cOC ratio result is “significant decrease”. In addition, the “circulating ucOC” value in assay [5] (MK-7 45-360 μg per day for 12 weeks, effect even at 45 μg/day, healthy men and premenopausal women) was “significant decrease”. Also, the circulating adiponectin result in assay [5] (nutritional levels of MK-7, 12 weeks) is reported as “does not affect”. For the same molecule, the “effect on body weight and BMI” value in assay [6] (nutritionally relevant intake, MK-7 180 μg/day, 3 years, versus placebo increase) was “maintenance of body weight and BMI”.

For the molecule `CC(C)=CCC/C(C)=C/CC/C(C)=C/CC/C(C)=C/CC1=C(C)C(=O)c2ccccc2C1=O` [MK-4], the “UCR (ucOC/cOC ratio)” value in assay [7] (after 3 years MK-4 45 mg/day) stood at 0.12±0.15; in assay [7] (baseline, MK-4 group), 0.54±0.35. The “decrease of UCR” value in assay [7] (after 3 years MK-4 45 mg/day versus baseline, P<0.0001) came to 74±22%. Also, the “serum ucOC” value in assay [7] (after 3 years MK-4 45 mg/day, P<0.0001) turned out to be 0.8 ± 1.0 ng/mL; in assay [7] (baseline, MK-4 group) it was 3.2 ± 1.9 ng/mL. Further, the “serum cOC” value in assay [7] (after 3 years MK-4 45 mg/day, P=0.046) stood at 6.9 ± 2.3 ng/mL; in assay [7] (baseline, MK-4 group) it was 6.4 ± 2.5 ng/mL. The circulating adiponectin in assay [7] (after 3 years MK-4 45 mg/day, no significant difference to placebo (P=0.224)) turned out to be 13.1 ± 8.3 µg/mL; in assay [7] (baseline, MK-4 group, no significant difference to placebo (P=0.562)), 14.2 ± 9.7 µg/mL. The BMI in assay [7] (after 3 years MK-4 45 mg/day, non-significant increase (P=0.463)) is reported as 27.2±0.3 kg/m^2; in assay [7] (baseline, MK-4 group) it was 27.1±0.3 kg/m^2; in assay [6] (after 3 years supplementation (180 μg/day), P=0.463), 25.4±3.0 kg/m^2; in assay [6] (baseline, treated group) it was 25.2±2.8 kg/m^2. In addition, the average body weight in assay [7] (remained constant over 3 years MK-4 45 mg/day) turned out to be 70.3 ± 0.9 kg; in assay [6] (after 3 years supplementation (180 μg/day), non-significant change), 67.4 kg; in assay [6] (baseline, treated group), 66.9 kg. Moreover, in the assay on adipogenesis, the adipogenesis entry is on record as “inhibited”. Further, the osteoblastic differentiation result with adipogenesis is “stimulated”.
